Experiment: xn = mol fraction of the nth substance listed
Conditions: Liquid, Vibrating tube method

CCC(C)Cl (stereo unspecified) [2-chlorobutane] + CCCCCCC
mass density [kg/m3]
Conditions | 283.15 K | 293.15 K
100 kPa, x2 = 0.0524 | 870.08 | 859.09
100 kPa, x2 = 0.1018 | 857.33 | 846.5
100 kPa, x2 = 0.1968 | 834.23 | 823.7
100 kPa, x2 = 0.3006 | 810.89 | 800.7
100 kPa, x2 = 0.4029 | 789.62 | 779.7
100 kPa, x2 = 0.5017 | 770.58 | 760.98
100 kPa, x2 = 0.6008 | 752.78 | 743.44
100 kPa, x2 = 0.7023 | 735.82 | 726.75
100 kPa, x2 = 0.7977 | 720.94 | 712.09
100 kPa, x2 = 0.8986 | 706.28 | 697.66
100 kPa, x2 = 0.952 | 698.95 | 690.45
2000 kPa, x2 = 0.0524 | 872.12 | 861.28
2000 kPa, x2 = 0.1018 | 859.33 | 848.65
2000 kPa, x2 = 0.1968 | 836.28 | 825.79
2000 kPa, x2 = 0.3006 | 812.93 | 802.72
2000 kPa, x2 = 0.4029 | 791.64 | 781.78
2000 kPa, x2 = 0.5017 | 772.59 | 763.02
2000 kPa, x2 = 0.6008 | 754.76 | 745.47
2000 kPa, x2 = 0.7023 | 737.76 | 728.77
2000 kPa, x2 = 0.7977 | 722.86 | 714.07
2000 kPa, x2 = 0.8986 | 708.14 | 699.64
2000 kPa, x2 = 0.952 | 700.89 | 692.42
5000 kPa, x2 = 0.0524 | 875.14 | 864.55
5000 kPa, x2 = 0.1018 | 862.34 | 851.88
5000 kPa, x2 = 0.1968 | 839.19 | 828.97
5000 kPa, x2 = 0.3006 | 815.75 | 805.92
5000 kPa, x2 = 0.4029 | 794.46 | 784.93
5000 kPa, x2 = 0.5017 | 775.35 | 766.08
5000 kPa, x2 = 0.6008 | 757.49 | 748.48
5000 kPa, x2 = 0.7023 | 740.41 | 731.73
5000 kPa, x2 = 0.7977 | 725.51 | 716.99
5000 kPa, x2 = 0.8986 | 710.74 | 702.52
5000 kPa, x2 = 0.952 | 703.44 | 695.28
7000 kPa, x2 = 0.0524 | 877.15 | 866.63
7000 kPa, x2 = 0.1018 | 864.31 | 853.99
7000 kPa, x2 = 0.1968 | 841.13 | 831.06
7000 kPa, x2 = 0.3006 | 817.66 | 807.98
7000 kPa, x2 = 0.4029 | 796.31 | 786.88
7000 kPa, x2 = 0.5017 | 777.21 | 768.04
7000 kPa, x2 = 0.6008 | 759.32 | 750.4
7000 kPa, x2 = 0.7023 | 742.22 | 733.58
7000 kPa, x2 = 0.7977 | 727.32 | 718.82
7000 kPa, x2 = 0.8986 | 712.5 | 704.3
7000 kPa, x2 = 0.952 | 705.2 | 697.05
10000 kPa, x2 = 0.0524 | 880.01 | 869.74
10000 kPa, x2 = 0.1018 | 867.16 | 857.1
10000 kPa, x2 = 0.1968 | 844.01 | 834.15
10000 kPa, x2 = 0.3006 | 820.49 | 810.94
10000 kPa, x2 = 0.4029 | 799.08 | 789.81
10000 kPa, x2 = 0.5017 | 779.9 | 770.91
10000 kPa, x2 = 0.6008 | 761.96 | 753.22
10000 kPa, x2 = 0.7023 | 744.79 | 736.37
10000 kPa, x2 = 0.7977 | 729.85 | 721.59
10000 kPa, x2 = 0.8986 | 714.98 | 707.02
10000 kPa, x2 = 0.952 | 707.64 | 699.74
20000 kPa, x2 = 0.0524 | 889.1 | 879.38
20000 kPa, x2 = 0.1018 | 876.16 | 866.54
20000 kPa, x2 = 0.1968 | 852.83 | 843.5
20000 kPa, x2 = 0.3006 | 829.21 | 820.12
20000 kPa, x2 = 0.4029 | 807.66 | 798.87
20000 kPa, x2 = 0.5017 | 788.35 | –
20000 kPa, x2 = 0.6008 | 770.29 | –
20000 kPa, x2 = 0.7023 | 753.01 | –
20000 kPa, x2 = 0.7977 | 737.95 | –
20000 kPa, x2 = 0.8986 | 722.98 | –
20000 kPa, x2 = 0.952 | 715.57 | –
30000 kPa, x2 = 0.0524 | 897.39 | –
30000 kPa, x2 = 0.1018 | 884.45 | –
30000 kPa, x2 = 0.1968 | 860.93 | –
30000 kPa, x2 = 0.3006 | 837.18 | –
30000 kPa, x2 = 0.4029 | 815.5 | –
30000 kPa, x2 = 0.5017 | 796.06 | –
30000 kPa, x2 = 0.6008 | 777.85 | –
30000 kPa, x2 = 0.7023 | 760.42 | –
30000 kPa, x2 = 0.7977 | 745.22 | –
30000 kPa, x2 = 0.8986 | 730.14 | –
30000 kPa, x2 = 0.952 | 722.65 | –
40000 kPa, x2 = 0.0524 | 905.09 | –
40000 kPa, x2 = 0.1018 | 892.06 | –
40000 kPa, x2 = 0.1968 | 868.43 | –
40000 kPa, x2 = 0.3006 | 844.52 | –
40000 kPa, x2 = 0.4029 | 822.78 | –
40000 kPa, x2 = 0.5017 | 803.2 | –
40000 kPa, x2 = 0.6008 | 784.86 | –
40000 kPa, x2 = 0.7023 | 767.33 | –
40000 kPa, x2 = 0.7977 | 751.95 | –
40000 kPa, x2 = 0.8986 | 736.77 | –
40000 kPa, x2 = 0.952 | 729.23 | –
50000 kPa, x2 = 0.0524 | 912.23 | –
50000 kPa, x2 = 0.1018 | 899.1 | –
50000 kPa, x2 = 0.1968 | 875.41 | –
50000 kPa, x2 = 0.3006 | 851.37 | –
50000 kPa, x2 = 0.4029 | 829.44 | –
50000 kPa, x2 = 0.5017 | 809.74 | –
50000 kPa, x2 = 0.6008 | 791.3 | –
50000 kPa, x2 = 0.7023 | 773.63 | –
50000 kPa, x2 = 0.7977 | 758.16 | –
50000 kPa, x2 = 0.8986 | 742.88 | –
50000 kPa, x2 = 0.952 | 735.27 | –
60000 kPa, x2 = 0.0524 | 918.92 | –
60000 kPa, x2 = 0.1018 | 905.75 | –
60000 kPa, x2 = 0.1968 | 881.9 | –
60000 kPa, x2 = 0.3006 | 857.83 | –
60000 kPa, x2 = 0.4029 | 835.76 | –
60000 kPa, x2 = 0.5017 | 816 | –
60000 kPa, x2 = 0.6008 | 797.44 | –
60000 kPa, x2 = 0.7023 | 779.67 | –
60000 kPa, x2 = 0.7977 | 764.09 | –
60000 kPa, x2 = 0.8986 | 748.68 | –
60000 kPa, x2 = 0.952 | 741.04 | –
65000 kPa, x2 = 0.0524 | 922.13 | –
65000 kPa, x2 = 0.1018 | 908.95 | –
65000 kPa, x2 = 0.1968 | 885.12 | –
65000 kPa, x2 = 0.3006 | 860.95 | –
65000 kPa, x2 = 0.4029 | 838.88 | –
65000 kPa, x2 = 0.5017 | 819 | –
65000 kPa, x2 = 0.6008 | 800.38 | –
65000 kPa, x2 = 0.7023 | 782.58 | –
65000 kPa, x2 = 0.7977 | 766.97 | –
65000 kPa, x2 = 0.8986 | 751.48 | –
65000 kPa, x2 = 0.952 | 743.76 | –
